Data set [1] addresses T1, human A2A AR (Homo sapiens, UniProt P29274). The data set can be described thus: cAMP functional assay in CHO-K1/ADORA2A/Gα15 cells (NECA-stimulated, HTRF).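 For all read-outs here: inhibition of NECA-driven intracellular cAMP build-up in the A2A-expressing cells, quantified with cAMP-d2 plus Eu3+-labelled anti-cAMP detection reagent.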 Format: cell-based. The note with it: for IC50: CHO cells expressing hA2A AR, read-out: cAMP IC50 hA2A AR; for IC50 / inhibition at 0.01 µM / inhibition at 0.1 µM / inhibition at 1 µM: mean ± SEM; for inhibition at 0.01 µM / inhibition at 0.1 µM / inhibition at 1 µM: CHO-K1, relative to ZM241385 at 1 μM; for inhibition at 0.01 µM: compound at 10 nM, read-out: hA2A AR (%) inhibition of cAMP, 10 nM; for inhibition at 0.1 µM: compound at 100 nM, read-out: hA2A AR (%) inhibition of cAMP, 100 nM; for inhibition at 1 µM: compound at 1000 nM, read-out: hA2A AR (%) inhibition of cAMP, 1000 nM. Background: TR-FRET usually uses a lanthanide donor and a delayed reading to cut background.
Method: In the cAMP assay, CHO-K1/ADORA2A/Gα15 cells expressing human A2A AR and CHO-K1/ADORA2b/Gα15 cells expressing human A2B AR were activated by 5′-(N-ethylcarboxamido)adenosine (NECA) and triggered the accumulation of intracellular cAMP concentration.
CHO-K1/ADORA2A/Gα15 cells expressing human A2A AR and CHO-K1/ADORA2b/Gα15 cells expressing human A2B AR were both constructed by Genscript Biotech Corporation. […] The test stock solutions were diluted with different gradients for use. The procedure was exemplified by the cAMP functional assay on the A2A receptor: 10,000 cells/well of CHO-K1/ADORA2A/Gα15 were seeded in a 384-well plate in 20 μl of assay buffer. […] Then, 10 μl of detection reagent (cAMP-d2 and anti-cAMP-Eu3+) was added into each well of the plate and incubated at room temperature for 1 h.

Data set [2] addresses T1, human A2A AR. In words: A2A AR radioligand binding assay ([3H]-ZM241385, HEK-293 cell membranes). The note with it: hA2A AR, HEK-293 membranes, [3H]-ZM241385; mean ± SEM; read-out: Radioligand binding assays IC50. The procedure: We further tested the IC50 values of compounds 7f, 7i, 17, 22, and AB928 in inhibiting the cAMP production of CHO cells expressing hA2A AR or hA2B AR (Table 2). […] In addition, the competitive binding experiments of compounds 7f, 7i, and AB928 were performed using membrane preparation of HEK-293 cells expressing human A2A AR (Table 3).
The target compounds were tested to evaluate their affinity for the A2A AR on HEK-293 cell membranes expressing human A2A AR. [^3H]-ZM241385 was used as a radioligand. The assay buffer (50 mM Tris-HCl, pH 7.4; 10 mM MgCl2; 1 mM EDTA; 1 μg/ml adenosine deaminase), wash buffer (50 mM Tris-HCl, pH 7.4; 154 mM NaCl), and 0.5% PEI solution were prepared and stored at 4 °C for use. The affinities were tested following the procedure reported by Hu et al[4].

The nature of data set [3]: In vivo pharmacokinetics study in Balb/c mice. The note with it: for Cmax / half-life / AUC(0-t) / AUC(0-inf) / bioavailability / Tmax: female, Balb/c, mouse, plasma; for bioavailability: oral 30 mg/kg vs i.v. 10 mg/kg, read-out: F (absolute bioavailability). The protocol: The in vivo pharmacokinetic (PK) profiles of compounds 7f and 7i were examined in […] Balb/c mice (Table 5 and Figure 5). […] After the intravenous (i.v.) administration of 10 mg/kg, the maximum plasma concentration of compounds 7f and 7i were 5010.30 µg/l at 0.25 h and 7266.60 µg/l at 0.25 h, respectively. […] These PK parameters can be used to evaluate the drug-like properties of compounds 7f and 7i, so as to clarify their effectiveness and obtain better clinical treatment effects.
The absolute bioavailabilities of synthetic compounds (7f, 7i) were studied in female Bal b/c mice (Jinan Pengyue Experimental Animal Breeding Co., Ltd.). The mice were divided into four groups each having six mice and were collected at crossover time points, with three mice at each point. Pharmacokinetics (PK) was evaluated after a single dose of 30 mg/kg oral gavage (Oral) or 10 mg/kg intravenous (i.v.) administration. After oral administration and i.v. injection, blood samples were obtained from the suborbital veniplex at pre, 15 min, 30 min, 1 h, 2 h, 4 h, 6 h, 8 h, 12 h, 24 h (Oral) and pre, 5 min, 15 min, 30 min, 1 h, 2 h, 4 h, 6 h, 8 h, 12 h, 24 h (i.v.). Approximately 200 μl of blood was collected at each time point. All blood samples were put into plastic microcentrifuge tubes containing Heparin-Na as an anticoagulant. Microcentrifuge tubes with blood samples and anticoagulant were inverted several times for proper mixing of the tube contents to centrifugation for plasma. Plasma samples will be centrifuged at 12,000 rpm for 8 min at 4 °C to obtain the supernatant. The serum sample (25 μl) was treated with acetonitrile (100 μl), after which the mixture was vortex-mixed for 8 min and centrifuged at 10,000 rpm for 10 min at 4 °C. The supernatant layer was collected and then 50 μl of supernatant was injected for the UPLC-MS/MS analysis (details of the analytical method see Supporting information). […]
9. Analytical method of pharmacokinetics assay
Animal experiments were performed according to the institutional ethical guidelines on animal care and approved by the Institute Animal Care and Use Committee at Binzhou […]
Female Bal b/c mice (sourced from Jinan Pengyue Experimental Animal Breeding Co., Ltd.) approximately 6-8 weeks of age, and a weight of approximately 20-30 g. All of the mice were permitted with free access to standard pelleted food and water ad libitum and were kept in clean cages under controlled conditions (light/ dark cycle of 12 h, 60 ± 2% humidity, and 25 ± 1 °C). Before the day of administration, […] were fasted for 12 h but allowed water ad libitum.
9.2 Design of bioavailability study
The mice were divided into 4 groups each having six mice and were collected at crossover time points, with three mice at each point. Pharmacokinetics (PK) was […]
evaluated after a single dose of 30 mg/kg oral gavage (Oral) and 10 mg/kg intravenous […]
(i.v.) administration. The blood samples were obtained from the suborbital veniplex.
Each cohort had three mice, and plasma was collected at pre, 5 min, 15 min, 30 min, 1 […]
h, 2 h, 4 h, 6 h, 8 h, 12 h, and 24 h post dose for intravenous administration. Plasma […]
was collected at pre, 15 min, 30 min, 1 h, 2 h, 4 h, 6 h, 8 h, 12 h, and 24 h post dose for […]
9.3 Samples collection and quantitative analysis
Approximately 200 μL of blood was collected at each time point. All blood samples […]
were put into plastic microcentrifuge tubes containing Heparin-Na as anticoagulant. […]
microcentrifuge tubes with blood samples and anticoagulant were inverted several […]
times for proper mixing of the tube contents to centrifugation for plasma. Plasma […]
samples will be centrifuged at 12000 rpm for 8 min at 4 ℃ to obtain the supernatant.
The serum sample (25 μL) was treated with acetonitrile (100 μL), after which the […]
mixture was vortex-mixed for 8 min and centrifuged at 10000 rpm for 10 min at 4 ℃.
The supernatant layer was collected and then 50 μL of supernatant was injected for the […]
9.4 Chromatography and mass spectrometry conditions […]

Where [4] appears, read: iv, i.v. 10 mg/kg, read-out: Cmax i.v.
Where [5] appears, read: oral 30 mg/kg, read-out: Cmax Oral.
[6] abbreviates: iv, i.v. 10 mg/kg, mean n = 3, read-out: t1/2 i.v. (converted).
[7] abbreviates: iv, i.v. 10 mg/kg, read-out: AUC0→∞ i.v.
Setting [8] is: oral 30 mg/kg, mean n = 3, read-out: t1/2 Oral (converted).
Where [9] appears, read: oral 30 mg/kg, read-out: AUC0→t Oral.
[10] abbreviates: oral 30 mg/kg, read-out: AUC0→∞ Oral.
Setting [11] is: po, 30 mg/kg, oral 30 mg/kg, read-out: tmax Oral.

Like-named read-outs stand apart in the source and are kept apart here.

One may read the IC50 as the concentration that inhibits the measured activity by half. The inhibition is the relative decrease from the control value, in per cent. The term Cmax denotes the highest concentration seen after dosing. Broadly, the bioavailability is dose-corrected exposure relative to a reference, in per cent. The Tmax is the time at which the peak concentration occurs.

T1 sequence (P29274 whole entry): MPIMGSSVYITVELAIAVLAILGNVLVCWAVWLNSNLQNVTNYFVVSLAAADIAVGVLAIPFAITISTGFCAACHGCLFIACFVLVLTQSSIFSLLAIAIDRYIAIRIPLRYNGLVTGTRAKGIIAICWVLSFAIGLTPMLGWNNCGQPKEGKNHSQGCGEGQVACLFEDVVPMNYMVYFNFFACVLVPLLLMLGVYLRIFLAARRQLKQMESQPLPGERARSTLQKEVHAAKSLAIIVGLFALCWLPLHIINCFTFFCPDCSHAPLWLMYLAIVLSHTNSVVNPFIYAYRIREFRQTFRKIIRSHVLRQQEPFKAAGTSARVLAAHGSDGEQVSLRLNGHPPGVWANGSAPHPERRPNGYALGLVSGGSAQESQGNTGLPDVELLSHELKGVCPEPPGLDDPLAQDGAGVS

As to `Cc1c(C#N)cccc1-c1cc(-c2cn(Cc3cccc(C(N)=O)n3)nn2)nc(N)n1` [Compound 7i, 6-((4-(2-Amino-6-(3-cyano-2-methylphenyl)pyrimidin-4-yl)-1H-1,2,3-triazol-1-yl)methyl)picolinamide], at human A2A AR [1], the IC50 came to 0.006007 ± 5e-05 µM, the inhibition at 0.01 µM is 32.7 ± 1.8%, the inhibition at 0.1 µM was 95.9 ± 3.36% and the inhibition at 1 µM was found to be 103 ± 2.82%. Further, the IC50 on human A2A AR [2] turned out to be 0.0636 ± 0.013 µM. The Cmax in data set [3] (setting [4]) came to 7270 ng/mL. For the same compound, in data set [3] (setting [5]), the Cmax came to 1010 ng/mL. Besides, the half-life in data set [3] (setting [6]) was 2.19 h. The AUC(0-t) in data set [3] (iv, i.v. 10 mg/kg, read-out: AUC0→t i.v.) came out at 4480 ng·h/mL. Also, in data set [3] (setting [7]), the AUC(0-inf) was 4480 ng·h/mL. In addition, in data set [3], the bioavailability came out at 58.8%. Further, the half-life in data set [3] (setting [8]) was 4.82 h. The AUC(0-t) in data set [3] (setting [9]) came out at 7900 ng·h/mL. In data set [3] (setting [10]), the AUC(0-inf) turned out to be 8150 ng·h/mL. Also, in data set [3] (setting [11]), the Tmax came out at 1 h. Also, in data set [3] (i.v. 10 mg/kg), the AUC0→t/Dose i.v. was 448.46 (µg/L*h)/(mg/kg), the “AUC0→∞/Dose i.v.” value is given as 448.48 (µg/L*h)/(mg/kg) and the Cmax/Dose i.v. is 726.66 (µg/L)/(mg/kg). In addition, in data set [3] (oral 30 mg/kg), the “AUC0→t/Dose Oral” value is listed as 263.50 (µg/L*h)/(mg/kg), the “AUC0→∞/Dose Oral” value was 271.51 (µg/L*h)/(mg/kg) and the “Cmax/Dose Oral” value is recorded as 33.58 (µg/L)/(mg/kg).

Take `Cc1c(C#N)cccc1-c1cc(-c2cn(Cc3cccc(C#N)n3)nn2)nc(N)n1` [Compound 7f, 6-((4-(2-Amino-6-(3-cyano-2-methylphenyl)pyrimidin-4-yl)-1H-1,2,3-triazol-1-yl)methyl)picolinonitrile]: on human A2A AR [1], the IC50 is 0.02404 ± 6e-05 µM, the inhibition at 0.01 µM is 54.9 ± 1.19%, the inhibition at 0.1 µM is 84.2 ± 2.94% and the inhibition at 1 µM is 92.41 ± 0.43%. On human A2A AR [1] (ratio of cAMP IC50 values vs 7i), the “fold less active than compound 7i (cAMP IC50, A2A receptor)” value was 4 fold. Besides, the IC50 on human A2A AR [2] came to 0.158 ± 0.0564 µM. Besides, the Cmax in data set [3] (setting [4]) was 5010 ng/mL. Besides, the Cmax in data set [3] (setting [5]) amounted to 7160 ng/mL. Also, the Tmax in data set [3] (iv, 10 mg/kg, i.v. 10 mg/kg, read-out: tmax i.v.) came to 0.25 h. The half-life in data set [3] (setting [6]) was 2.67 h. The AUC(0-inf) in data set [3] (setting [7]) turned out to be 17300 ng·h/mL. Moreover, the bioavailability in data set [3] is 87.7%. Also, the half-life in data set [3] (setting [8]) was 4.12 h. In addition, the AUC(0-t) in data set [3] (setting [9]) amounted to 45500 ng·h/mL. For the same compound, in data set [3] (setting [10]), the AUC(0-inf) stood at 46200 ng·h/mL. The Tmax in data set [3] (setting [11]) was 2 h. Besides, in data set [3] (i.v. 10 mg/kg), the AUC0→t/Dose i.v. is 1728.68 (µg/L*h)/(mg/kg), the “AUC0→∞/Dose i.v.” value is recorded as 1731.60 (µg/L*h)/(mg/kg) and the Cmax/Dose i.v. is listed as 501.03 (µg/L)/(mg/kg). In addition, in data set [3] (oral 30 mg/kg), the “AUC0→t/Dose Oral” value was 1516.35 (µg/L*h)/(mg/kg), the “AUC0→∞/Dose Oral” value is recorded as 1541.08 (µg/L*h)/(mg/kg) and the “Cmax/Dose Oral” value is listed as 238.76 (µg/L)/(mg/kg).

Values taken from article PMC9154793, “Design, synthesis, and biological evaluation of triazole-pyrimidine-methylbenzonitrile derivatives as dual A2A/A2B adenosine receptor antagonists” (Journal of Enzyme Inhibition and Medicinal Chemistry, 2022).
